The source of these data is article PMC12679585, “Design, synthesis, and characterization of novel 5-ethylsulfonyl-indazole-3-carboxamides as dual VEGFR-2 and EGFR inhibitors: apoptotic antiproliferative and immunomodulatory evaluations” (RSC Advances, 2025).

Molecules are shown by their SMILES.

One data set relates to HCT-116 and MCF-7. Put plainly: Antiproliferative assay, average over the two cell lines. The note with it: Homo sapiens; average of HCT-116 and MCF-7; read-out: Average IC50 (GI50). In kind it is cell-based. The source says: (§1) The MTT assay[53,54] was employed to evaluate the antiproliferative efficacy of new compounds 8a–l against two human cancer cell lines: MCF-7 (breast) and HCT-116 (colorectal carcinoma). Erlotinib was employed as the benchmark. Check Appendix A for additional experimental information.
The MTT assay[53,54] was used to evaluate the antiproliferative properties of novel compounds 8a–l against two human cancer cell lines: MCF-7 (breast cancer) and HCT-116 (colorectal carcinoma). Erlotinib was utilized as the reference. […] The provided values represent the means of three experiments ± standard deviation (SD).

Data set [1] can be described thus: Cell viability assay (MTT) on normal mammary epithelial cells. Type of data set: cell-based. The note with it: human, MCF-10A normal mammary gland epithelial cells, four days. The protocol:
This test assesses the safety of new compounds 8a–l on normal cell lines. The efficacy of 8a–l was tested on the normal human mammary gland epithelial cell line MCF-10A. MCF-10A cells were incubated with 50 µM of each tested compound for four days. Cell viability was assessed using the MTT assay.[11,48] Appendix A has extra experimental details.
This assay evaluates the impact of novel compounds 8a–l on normal cell lines to determine their safety, an essential consideration in drug discovery. The efficacy of the examined compounds was evaluated utilizing the normal human mammary gland epithelial cell line MCF-10A. […]
4.2. Biological evaluation
4.2.1 Cell Viability assay (MTT assay)
(§2) MTT assay was performed to investigate the effect of the synthesized compounds on mammary epithelial cells (MCF-10A). The cells were propagated in medium consisting of Ham's F-12 medium/ Dulbecco's modified Eagle's medium (DMEM) (1:1) supplemented with 10% foetal calf serum (GIBCO, UK), 2 mM glutamine, insulin (10 μg/mL), hydrocortisone (500 ng/mL) and epidermal growth factor (20 ng/mL). Trypsin ethylenediamine tetra acetic acid (EDTA) was used to passage the cells after every 2-3 days. 96-well flat-bottomed cell culture plates were used to seed the cells at a density of 10^4 cells mL-1. The medium was aspirated from all the wells of culture plates after 24 h followed by the addition of synthesized compounds (in 200 μL medium to yield a final concentration of 0.1% (v/v) dimethyl sulfoxide) into individual wells of the plates.
(§3) Four wells were designated to a single compound. The plates were allowed to incubate at 37°C for 96 h. Afterwards, the medium was aspirated and 3-[4,5-dimethylthiazol-2-yl]-2,5-diphenyltetrazolium bromide (MTT) (0.4 mg/mL) in medium was added to each well and subsequently incubated for 3 h. The medium was aspirated and 150 μL dimethyl sulfoxide (DMSO) was added to each well. The plates were vortexed followed by the measurement of absorbance at 540 nm on a microplate reader. […]

Another data set relates to MCF-7. Put plainly: Antiproliferative assay (MTT). Type of data set: cell-based. The note with it: Homo sapiens, MCF7, MCF-7 breast, mean of three experiments ± SD.
Excerpt: as §1
(§4) The MTT assay[53,54] was used to evaluate the antiproliferative properties of novel compounds 8a–l against two human cancer cell lines: MCF-7 (breast cancer) and HCT-116 (colorectal carcinoma). Erlotinib was utilized as the reference. […] The provided values represent the means of three experiments ± standard deviation (SD). […]
as §2, with “of” for “MTT assay was performed to investigate the effect of the synthesized compounds on mammary epithelial cells (MCF-10A). The cells were propagated in medium consisting of”
as §3
(§5) All cell lines […]
(§6) were obtained from ATCC (American Type Cell Culture). […]
(§7) μM), benzamidine HCl (16 μg/mL), NaCl (10 mM),leupeptin (10 μg/mL) and pepstatin (10 μg/mL) at 0°C for 20 min at pH 7.4, followed by centrifugation for 20 min. To eliminate the nonspecifically bound material, a Ni-NTA super flow packed column was (1 picture or pasted object on this page, not shown here)

A further data set relates to HCT-116. Put plainly: Antiproliferative assay (MTT). Type of data set: cell-based. The note with it: Homo sapiens, HCT-116 colorectal, mean of three experiments ± SD.
Excerpt: as §1, §4
as §2, with “of” for “MTT assay was performed to investigate the effect of the synthesized compounds on mammary epithelial cells (MCF-10A). The cells were propagated in medium consisting of”
as §3, §5, §6, §7

Another data set relates to wild-type EGFR. Also on record: method as in PMID 26275028. The note with it: cited from earlier work.
A further data set has as its target VEGFR-2 kinase. Also on record: method as in PMID 24456902. The note with it: cited from earlier work.
For another data set, the system named is TNF-α. Put plainly: TNF-α level by qRT-PCR in HCT-116 cells. The note with it: HCT-116 cells, 24 hours, at IC50 against HCT-116 (8g 24 nM, 8h 23 nM), qRT-PCR. (In general: Real-time PCR tracks product formation cycle by cycle.)
In a further data set the test system is IL-6. Put plainly: IL-6 level by qRT-PCR in HCT-116 cells. The note with it: HCT-116 cells, 24 hours, at IC50 against HCT-116 (8g 24 nM, 8h 23 nM), qRT-PCR.
The test system of the next data set is Caspase-3. Put plainly: Caspase-3 activation assay in HCT-116 cells. Type of data set: cell-based, human. The procedure: Appendix A gives more details.
Additionally, activating caspases is essential for both initiating and terminating the apoptotic process.[64] Caspase-3 is an essential enzyme that cleaves several proteins within cells, leading to apoptotic cell death.[65] […]
be read immediately after the Stop Solution is added or within one hour if the microwell strips are stored at 2 - 8°C in the dark. Read the absorbance of each microwell on a spectrophotometer using 450 nm as the primary wavelength.
4.2.5. Caspase-3 activation assay
Allow all reagents to reach room temperature before use. Gently mix all liquid reagents prior to use. Determine the number of 8-well strips needed for the assay. Insert these in the frame(s) for current use. Add 100 μl of the Standard Diluent Buffer to the zero standard wells. Well(s) reserved for chromogen blank should be left empty. Add 100 μl of standards and controls or diluted samples to the appropriate microtiter wells. The sample dilution chosen should be optimized for each experimental system. Tap gently on side of plate to mix. Cover wells with plate cover and incubate for 2 hours at room temperature. Thoroughly aspirate or decant solution from wells and discard the liquid, Wash wells 4 times. Pipette 100 μl of Caspase-3 (Active) Detection Antibody solution into each well except the chromogen blank(s). Tap gently on the side of the plate to mix. Cover plate with plate cover and incubate for 1 hour at room temperature.
Thoroughly aspirate or decant solution from wells and discard the liquid, Wash wells 4 times. Add 100 μl Anti-Rabbit IgG HRP Working Solution to each well except the chromogen blank(s). Prepare the working dilution as described in Preparing IgG HRP.
Cover wells with the plate cover and incubate for 30 minutes at room temperature.
Thoroughly aspirate or decant solution from wells and discard the liquid. Wash wells 4 times. Add 100 μl of Stabilized Chromogen to each well. The liquid in the wells will […]
begin to turn blue. […] The
Tap side of plate gently to mix.
Use a curve fitting software to generate […]
for the dilution in step 3.
4.2.6. Caspase-8/9 activation assay
This lysate was diluted in […]

The next data set concerns Caspase-9. Put plainly: Caspase-9 activation assay in HCT-116 cells.

Procedure for IL-6: (§8) The reference molecule was dexamethasone, a drug that uniformly regulates the immune system.
TNF-α and IL6 a determination
(§9) determined using of q RT-PCR technique. By using q RTPCR (reference), the amount
(§10) treated HCT-116 cells was measured (at the IC50 concentrations). Total RNA was
(§11) accordance with the manufacturer's instructions (RNeasy mini kit, Qiagen, Germany).
(§12) Following RNA extraction, the Revert Aid First Strand cDNA Synthesis kit (Thermo
(§13) Scientific, USA) was used to create cDNA. The Rotor-Gene Q real-time PCR thermal
(§14) cycler was used to amplify target cDNA for apoptosis markers and GAPDH [as a
(§15) normalization (housekeeping) gene] using one step RT-PCR SYBR® Green kit Master
(§16) Mix (Bio-Rad Laboratories, USA). Two microliters of cDNA were combined with one
(§17) microliter of forward primer, one microliter of reverse primer, ten microliters of master
(§18) mixture, and twenty microliters of nuclease-free water to complete the reaction volume.
(§19) Every experiment was carried out three times.
(§20) Quantitative Real Time Reverse-Transcriptase PCR (qRT-PCR) primer sequences
TNF-α : R 5'- [sequence] -3'.
IL6 : R 5'- [sequence] -3
GAPDH : R 5’- [sequence]-3’
Procedure for TNF-α: as §8
TNF-α and IL6 a determination
as §9, §10, §11, §12, §13, §14, §15, §16, §17, §18, §19, §20
TNF-α : R 5'- [sequence] -3'.
IL6 : R 5'- [sequence] -3
GAPDH : R 5’- [sequence]-3’

With `CCCCCNC(=O)NNC(=O)c1n[nH]c2ccc(S(=O)(=O)CC)cc12` [Compound 8a, 2-(5-(Ethylsulfonyl)-1H-indazole-3-carbonyl)-N-pentylhydrazine-1-carboxamide], the 50% inhibitory concentration (IC50) (as a rule, the point on the concentration scale where inhibition reaches its midpoint) worked out at 48 nM with HCT-116 and MCF-7; 54 ± 4 nM in the data set on MCF-7; 42 ± 4 nM in the data set with HCT-116. Also, in [1], the viability (in general, a per cent measure of how many cells are alive, often set against a control) at 4 days, 50 µM came to 90%.
The matching figures for `CCCCCCNC(=O)NNC(=O)c1n[nH]c2ccc(S(=O)(=O)CC)cc12` [Compound 8b, 2-(5-(Ethylsulfonyl)-1H-indazole-3-carbonyl)-N-hexylhydrazine-1-carboxamide]: 37 nM, 40 ± 3 nM, 33 ± 3 nM and 92%.
For `CCCCCCCNC(=O)NNC(=O)c1n[nH]c2ccc(S(=O)(=O)CC)cc12` [Compound 8c, 2-(5-(Ethylsulfonyl)-1H-indazole-3-carbonyl)-N-heptylhydrazine-1-carboxamide] the same measures were 32 nM, 34 ± 2 nM, 30 ± 2 nM and 91%.
The matching figures for `CCCCCCCCNC(=O)NNC(=O)c1n[nH]c2ccc(S(=O)(=O)CC)cc12` [Compound 8d, 2-(5-(Ethylsulfonyl)-1H-indazole-3-carbonyl)-N-octylhydrazine-1-carboxamide]: 30 nM, 31 ± 2 nM, 28 ± 1 nM and 90%.
For the compound `CCS(=O)(=O)c1ccc2[nH]nc(C(=O)NNC(=O)NC3CCCCC3)c2c1` [Compound 8e, 2-(5-(Ethylsulfonyl)-1H-indazole-3-carbonyl)-N-(cyclohexyl)hydrazine-1-carboxamide], the IC50 came to 35 nM in the data set on HCT-116 and MCF-7; 39 ± 3 nM with MCF-7; 31 ± 3 nM in the data set on HCT-116. In addition, the viability at 4 days, 50 µM in [1] amounted to 91%.
The matching figures for `CCS(=O)(=O)c1ccc2[nH]nc(C(=O)NNC(=O)NC3CCC(C)CC3)c2c1` (stereo not shown) [Compound 8f, 2-(5-(Ethylsulfonyl)-1H-indazole-3-carbonyl)-N-(4-methylcyclohexyl)hydrazine-1-carboxamide]: 45 nM, 50 ± 4 nM, 39 ± 3 nM and 92%.
For `CCS(=O)(=O)c1ccc2[nH]nc(C(=O)NNC(=O)Nc3ccc(F)cc3)c2c1` [Compound 8i, 2-(5-(Ethylsulfonyl)-1H-indazole-3-carbonyl)-N-(4-fluorophenyl)hydrazine-1-carboxamide] the same measures were 40 nM, 44 ± 4 nM, 36 ± 3 nM and 91%.
As to `CCS(=O)(=O)c1ccc2[nH]nc(C(=O)NNC(=O)NCc3ccccc3)c2c1` [Compound 8j, 2-(5-(Ethylsulfonyl)-1H-indazole-3-carbonyl)-N-(benzyl)hydrazine-1-carboxamide], the 50% inhibitory concentration (IC50) in the data set on HCT-116 and MCF-7 is 34 nM; in the data set with MCF-7, 36 ± 2 nM; in the data set with HCT-116, 31 ± 2 nM. In addition, the viability at 4 days, 50 µM in data set [1] stood at 90%.
The matching figures for `CCS(=O)(=O)c1ccc2[nH]nc(C(=O)NNC(=O)NCc3ccc(OC)cc3)c2c1` [Compound 8k, 2-(5-(Ethylsulfonyl)-1H-indazole-3-carbonyl)-N-(4-methoxybenzyl)hydrazine-1-carboxamide]: 31 nM, 32 ± 2 nM, 30 ± 2 nM and 92%.
For `CCS(=O)(=O)c1ccc2[nH]nc(C(=O)NNC(=O)NCCc3ccccc3)c2c1` [Compound 8l, 2-(5-(Ethylsulfonyl)-1H-indazole-3-carbonyl)-N-phenethylhydrazine-1-carboxamide] the same measures were 42 nM, 46 ± 4 nM, 37 ± 3 nM and 91%.
`C=CC(=O)Nc1cccc(Oc2nc(Nc3n[nH]c4ccccc34)cc(N3CCN(C)CC3)n2)c1` [Compound XII]: the IC50 in the data set with wild-type EGFR was 1700 nM.
For the compound `CN(c1ccc2cn(C)nc2c1)c1ccnc(Nc2ccc(OC(F)(F)F)cc2)n1` [Compound XIV], on VEGFR-2 kinase, the IC50 is 12 nM.
Consider `C[C@@H]1C[C@H]2[C@@H]3CCC4=CC(=O)C=C[C@]4(C)[C@@]3(F)[C@@H](O)C[C@]2(C)[C@@]1(O)C(=O)CO` [Dexamethasone, reference compound], for which the “TNF-α (% inhibition)” value in the data set on TNF-α is given as 83%; with TNF-α (listed as dexamethasone), 82.7%. Besides, the “IL-6 (% inhibition)” value in the data set on IL-6 is 93%; with IL-6 (listed as dexamethasone), 93.2%.
As to `C#Cc1cccc(Nc2ncnc3cc(OCCOC)c(OCCOC)cc23)c1` [Erlotinib, reference compound], the IC50 amounted to 35 nM in the data set on HCT-116 and MCF-7; 40 ± 3 nM with MCF-7; 30 ± 2 nM in the data set with HCT-116.
In the case of `CN[C@@H]1C[C@H]2O[C@@](C)([C@@H]1OC)n1c3ccccc3c3c4c(c5c6ccccc6n2c5c31)C(=O)NC4` [Staurosporine, reference compound], the “Caspase-3 Conc.” value with Caspase-3 is 465 ± 4 pg/mL. The “Caspase-9 Conc.” value with Caspase-9 came out at 20 ± 1 ng/mL.
With `Cc1ccc(Nc2nccc(N(C)c3ccc4c(C)n(C)nc4c3)n2)cc1S(N)(=O)=O` [pazopanib], the IC50 on VEGFR-2 kinase was […].
